In patent US20140127194A1, “COMBINED PHARMACEUTICAL COMPOSITIONS FOR THE TREATMENT OF TUMORS” (HYD Rákkutató és Gyógyszerfejlesztö Kft., priority 2011, published 2014):

What was measured:
[1] = test system: prostate cancer with bone metastasis; assay: Prostate cancer case reports: PSA tumor marker and remission versus DDW consumption; type: in vivo, human; conditions: patient, PSA over 1000 ng/mL, before start of DDW
Protocol: FIG. 1: Data of a patient with prostate cancer and bone metastasis, with extremely high PSA level (1000 ng/mL). Beside conventional treatment, DDW was also applied. In spite of the potentially bad prognosis the patient remained in regression for 9 years. PSA level: left Y axis and broken line; DDW dose: right Y axis and solid line.
FIG. 2: patient with prostate cancer and extreme PSA levels. […] Interrupting the DDW cure caused increasing PSA levels, and after finishing DDW consumption in December 2009 PSA was soaring. Broken line: PSA level, solid line: DDW dose.
Patient 2 (FIG. 1) had bone metastasis in the early phase of the disease, PSA was over 1000 ng/mL. […] They started consuming DDW in April 2003, 640 days (=21.3 months) after diagnosing bone metastasis with 15.0 ng/mL PSA. They consumed DDW for nearly one year at DdU of 1.0. A break of 6 months followed this cure, during which the disease progressed and PSA increased from 1 to 4.34 ng/mL. A new DDW cure brought regression and PSA below 1 ng/mL. 4 years after diagnosis, Androcure was replaced with Suprefact. Further DDW treatments (see FIG. 1 for DdU values) PSA was decreased in the following 3 years and the patient had no complaints in spite of the existing bone metastasis and the generally bad prognosis. […]

[2] = test system: chronic myeloid leukemia (CML); assay: Case report: chronic myeloid leukemia patient, DDW with Litaril, then STI 571 (Gleevec); type: in vivo, human
Protocol: b/ In a young patient in 1998, chronic myeloid leukemia (CML) was diagnosed, and was medicated with Litaril because of high WBC count. […] In February 2001 the patient was enrolled in the clinical trial of the drug candidate STI 571 (Gleevec). By August 2001, bone marrow damage decreased to 66% from the previous 80%.
(§1) DdU units used in the treatment were determined as described in Example 1 and 2.

[3] = test system: kidney tumor; assay: Case report: kidney tumor patient, Sutent with and without DDW; type: in vivo, human
Protocol: c/ With another tyrosine kinase inhibiting agent, Sutent, a similar positive interaction was found. In one patient, kidney tumor was diagnosed in spring 2003 and was surgically removed. Up to spring 2006, three further operations were necessary because of the disease recidivating.
as §1

[4] = test system: breast cancer; conditions: Taxotere without DDW, general experience; cited from earlier work
[5] = test system: HT199 melanoma cell line; assay: In vitro growth of melanoma cells with DDW, doxorubicin and their combination; type: cell-based; conditions: 450 and 900 nM in normal (150 ppm D) medium
Protocol: Curves 4 and 6 show the inhibition by DDW plus the mentioned two concentrations of doxorubicin.
In the experiment, the effect of DDW, doxorubicin, and their combination was tested on HT199 melanoma cell line.

## CC(=O)O[C@]1(C(C)=O)CC[C@H]2[C@@H]3C=C(Cl)C4=CC(=O)[C@@H]5C[C@@H]5[C@]4(C)[C@H]3CC[C@@]21C [Androcure]
[1]
  PSA change: PSA was rapidly lowered

## C[C@]12CC[C@@H]3c4ccc(OC(=O)N(CCCl)CCCl)cc4CC[C@H]3[C@@H]1CC[C@@H]2OP(=O)(O)O [Estracyt]
[1]
  PSA change: PSA was rapidly lowered

## Cc1ccc(NC(=O)c2ccc(CN3CCN(C)CC3)cc2)cc1Nc1nccc(-c2cccnc2)n1 [STI 571]
[2]; one CML patient consuming DDW and on STI 571, April 2002
  disease status: fully negative
[2]; one CML patient consuming DDW, STI 571 from February 2001, by August 2001, previously 80%
  bone marrow damage: 66%

## CCN(CC)CCNC(=O)c1c(C)[nH]c(/C=C2\C(=O)Nc3ccc(F)cc32)c1C [Sutent]
[3]; one kidney tumor patient, Sutent without DDW, progression again in March 2007
  tumor response: efficient initially
[3]; same patient, DDW in parallel with Sutent from autumn 2007
  tumor response: the tumors shrank again
[3]; same patient, DDW in parallel with Sutent, three years later
  tumor response on images: ongoing decrease of the tumor sizes

## CC(=O)O[C@@]12CO[C@@H]1C[C@H](O)[C@@]1(C)C(=O)[C@H](O)C3=C(C)[C@@H](OC(=O)[C@H](O)[C@@H](NC(=O)OC(C)(C)C)c4ccccc4)C[C@@](O)([C@@H](OC(=O)c4ccccc4)[C@H]21)C3(C)C [Taxotere, docetaxel]
[4]
  MST: 20-22 months

## COc1cccc2c1C(=O)c1c(O)c3c(c(O)c1C2=O)C[C@@](O)(C(=O)CO)C[C@@H]3O[C@H]1C[C@H](N)[C@H](O)[C@H](C)O1 [doxorubicin]
[5]
  effect on growth of melanoma cells: inhibitory effect
